Test results: article PMC11525786, “In silico and pharmacological evaluation of GPR65 as a cancer immunotherapy target regulating T-cell functions” (Frontiers in Immunology, 2024)

Molecular target: T1, GPR65 (Homo sapiens, UniProt Q8IYL9)
T1 construct: GPR65 overexpressed in A375 cells (rCD2-GPR65 tandem lentivector)
Assay: HTRF cAMP induction in GPR65-overexpressing A375 cells ([…] agonist, pH […]), blocked by GPR65 antagonists
Assay type: cell-based

T1 sequence (Q8IYL9 whole entry): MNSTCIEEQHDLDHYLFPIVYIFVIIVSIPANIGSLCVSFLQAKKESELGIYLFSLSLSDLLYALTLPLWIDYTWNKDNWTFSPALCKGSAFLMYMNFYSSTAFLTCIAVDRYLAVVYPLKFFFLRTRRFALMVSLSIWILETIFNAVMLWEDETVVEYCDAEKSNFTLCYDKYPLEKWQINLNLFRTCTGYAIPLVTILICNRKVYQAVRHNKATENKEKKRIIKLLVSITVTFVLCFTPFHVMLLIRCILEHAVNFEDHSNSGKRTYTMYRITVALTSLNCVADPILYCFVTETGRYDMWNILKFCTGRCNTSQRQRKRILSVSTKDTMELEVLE

CN1N=C(SCc2ccc(Cl)cc2Cl)Sc2c1cnn(C)c2=O [BTB09089, 3-[(2,4-dichlorobenzyl)thio]-1,6-dimethyl-5,6-dihydro-1H-pyridazino [4,5-e][1,3,4]thiadiazin-5-one] was tested, and the “HTRF cAMP induction in GPR65-overexpressing A375 cells (1 μM agonist, pH 7.5), b” value was “capacity to inhibit cAMP biosynthesis upon GPR65 activation by BTB09089”.
